Like-named read-outs stand apart in the source and are kept apart here.
Columns and labels:
[1] = Pharmacokinetics of omacetaxine in orthotopic glioblastoma PDX and naïve NOD/SCID mice (LC-MS/MS of plasma, brain, liver); format: in vivo, mouse
Description: An amount of 10 μL medium samples was vortex-mixed with 30 μL of acetonitrile: formic acid (100:1 v/v) containing 100 nM RO-3306 Internal Standard). After centrifugation, the supernatant was 5-fold diluted in water. OMA concentrations were measured using an LC-MS/MS system that consisted of an UltiMate 3000 LC System (Dionex, Sunnyvale, CA, USA) and an API 4000 mass spectrometer (Sciex, Framingham, MA, USA). Samples were analyzed using a ZORBAX Extend-C18 column (Agilent, Santa Clara, CA, USA), preceded by a Security-guard C18 pre-column (Phenomenex, Utrecht, The Netherlands). Elution was performed using a mixture of mobile phase A (0.1% formic acid in water (v/v)) and mobile phase B (methanol) in a 5 min gradient from 20% to 95% B, followed by 95% B that was maintained for 3 min and then re-equilibrated at 20% B. Multiple reaction monitoring parameters were 546.6/298.1 (OMA) and 352.1/186.0 (RO-3306).
Non-obese diabetic severe combined immunodeficient (NOD/SCID) female mice 6–8 weeks of age were used for this study. All experiments were ethically approved by the local Animal Experiments Committee. Patient-derived glioblastoma cell lines were cultured under serum-free conditions prior to injection into the mice. Mice were stereotactically injected with GS607, GS832 (both 2.5 × 10^5 in 5 μL) or GBM8 (1 × 10^5 in 3 μL) in the right striatum 1.0 mm anteroposterior (AP), 2.0 mm medio lateral (ML) and −2.5 mm dorsal ventral (DV) of bregma suture under aseptic conditions. Mice were monitored daily for signs of persistent abnormal behavior and/or breathing, weight loss >20% and development of neurological symptoms such as convulsions, seizures and/or hemiparesis. Mice were euthanized and the mouse brains harvested for histological and LC/MS/MS analysis.
A single dose of 1.5 mg/kg of OMA was administered s.c. to glioblastoma-bearing NOD/SCID and naïve non-tumor-bearing mice. Mice received OMA prior to the timepoint drug delivery experiment, ensuring the presence of significant tumor masses. For GS607, this was at 78 days; for GS832 at 90 days; and for GBM8 at 46 days post-tumor implantation, based on previous survival experiments. Blood samples were collected at 15 min, 30 min, 60 min, 120 min and 240 min via the tail vein and/or submandibular vein and placed in EDTA tubes. Mice were euthanized at 60 min, 120 min or 240 min with cervical dislocation. Brains and livers were surgically collected and snap-frozen in liquid nitrogen (N2). To preserve the drug stability in plasma mouse blood, samples were centrifuged immediately upon collection. Plasma was separated by centrifugation at 3500 rpm at 4 °C for 15 min. Both plasma and tissue samples were stored at −80 °C until LC-MS/MS analysis.

human P-gp (ABCB1) = biological target: T1, human P-gp (ABCB1) (Homo sapiens, UniProt P08183); test: Concentration equilibrium transport assay (CETA), LLC-PK1 cells transduced with human ABCB1; format: in vitro ADME; details: omacetaxine 100 nM, up to 4 h
T1 construct: expressed in transfected cells; host or cells: LLC-PK1 (pig kidney) cells transduced with human ABCB1 (LLC-MDR1)
T1 sequence (P08183 whole entry): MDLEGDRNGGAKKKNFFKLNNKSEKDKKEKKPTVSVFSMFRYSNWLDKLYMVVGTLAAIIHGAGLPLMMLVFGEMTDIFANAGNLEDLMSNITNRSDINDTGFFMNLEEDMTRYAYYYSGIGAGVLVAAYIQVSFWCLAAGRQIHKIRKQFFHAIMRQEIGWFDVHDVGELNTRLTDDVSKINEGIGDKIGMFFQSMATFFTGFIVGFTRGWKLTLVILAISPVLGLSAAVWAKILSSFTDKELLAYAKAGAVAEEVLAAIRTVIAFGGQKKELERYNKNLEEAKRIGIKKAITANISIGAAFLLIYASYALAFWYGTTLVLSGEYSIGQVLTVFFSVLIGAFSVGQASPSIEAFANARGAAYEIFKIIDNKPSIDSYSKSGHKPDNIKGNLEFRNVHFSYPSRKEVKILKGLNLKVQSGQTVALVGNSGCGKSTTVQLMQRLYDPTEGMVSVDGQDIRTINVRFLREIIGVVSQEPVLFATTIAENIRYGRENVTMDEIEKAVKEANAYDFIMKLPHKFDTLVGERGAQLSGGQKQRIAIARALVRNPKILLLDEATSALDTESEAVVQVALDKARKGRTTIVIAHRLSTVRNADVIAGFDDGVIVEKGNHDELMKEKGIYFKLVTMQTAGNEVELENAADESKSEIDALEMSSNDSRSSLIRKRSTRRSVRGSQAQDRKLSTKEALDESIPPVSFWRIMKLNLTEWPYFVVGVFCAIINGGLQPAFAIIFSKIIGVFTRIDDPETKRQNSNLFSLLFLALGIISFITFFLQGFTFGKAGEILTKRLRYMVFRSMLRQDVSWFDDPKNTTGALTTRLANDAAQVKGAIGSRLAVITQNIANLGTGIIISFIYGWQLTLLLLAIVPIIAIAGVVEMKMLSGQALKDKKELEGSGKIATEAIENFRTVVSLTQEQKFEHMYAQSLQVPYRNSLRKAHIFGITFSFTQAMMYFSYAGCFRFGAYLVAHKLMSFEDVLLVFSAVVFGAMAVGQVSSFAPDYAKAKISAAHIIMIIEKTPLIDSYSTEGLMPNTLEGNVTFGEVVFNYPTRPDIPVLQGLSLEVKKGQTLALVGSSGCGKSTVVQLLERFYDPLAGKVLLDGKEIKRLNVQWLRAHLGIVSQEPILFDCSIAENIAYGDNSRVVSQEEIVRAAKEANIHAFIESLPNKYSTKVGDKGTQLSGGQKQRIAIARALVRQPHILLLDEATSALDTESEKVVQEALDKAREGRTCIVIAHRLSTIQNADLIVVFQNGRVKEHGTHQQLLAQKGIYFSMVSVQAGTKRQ
Description: In vitro transport studies were performed using the LLC pig kidney cell line (LLC-PK1) and sub-lines transduced with murine Abcb1a (LLC-Mdr1a) or human ABCB1 (LLC-MDR1). Similarly, in vitro transport studies were conducted in the parental Madin–Darby canine kidney (MDCK) type II cell line (MDCK-Parent) and murine Abcg2 (MDCK-Bcrp1) or human ABCG2 (MDCK-BCRP) transduced sublines. Concentration equilibrium transport assays (CETA) were performed as previously described. Briefly, cells were grown on polycarbonate membrane filters (3.0 µm pores, 24 mm diameter; Costar Corning, NY, USA) for 4 days. Next, 2 mL of MEM medium containing 10% FCS and omacetaxine (100 nM) was added to both the apical and basal compartments. Then, [14C]-inulin ([…]) was added basolateral to check the membrane integrity. Zosuquidar 1 μM was added to all wells containing MDCK cells to inhibit endogenous (canine) ABCB1. […] The integrity of the membrane was checked by taking 20 μL samples from both apical and basolateral sides for radioactivity counting. […] OMA concentrations were measured using an LC-MS/MS system that consisted of an UltiMate 3000 LC System (Dionex, Sunnyvale, CA, USA) and an API 4000 mass spectrometer (Sciex, Framingham, MA, USA).

concentration at 240 min ([1]; female, NOD/SCID, mouse, brain, right hemisphere (tumor bearing), sc, 1.5 mg/kg, GS832-PDX, 240 min, single s.c. dose 1.5 mg/kg, n = 5, read-out: [Brain] ± SD, right hemisphere (tumor bearing)): 11.6 ± 6.4 ng/g
Kp at 60 min ([1]; female, NOD/SCID, mouse, brain, sc, 1.5 mg/kg, GBM8 PDX, 60 min, single s.c. dose 1.5 mg/kg, read-out: [Brain]/[Plasma] Ratio ± SD): 0.11
Kp at 60 min ([1]; female, NOD/SCID, mouse, brain, sc, 1.5 mg/kg, GS607-PDX, 60 min, single s.c. dose 1.5 mg/kg, n = 2 blood samples, read-out: [Brain]/[Plasma] Ratio ± SD): 0.23
Kp at 60 min ([1]; female, NOD/SCID, mouse, brain, sc, 1.5 mg/kg, GS832-PDX, 60 min, single s.c. dose 1.5 mg/kg, read-out: [Brain]/[Plasma] Ratio ± SD): 0.1
Kp at 120 min ([1]; female, NOD/SCID, mouse, brain, sc, 1.5 mg/kg, GS832-PDX, 120 min, single s.c. dose 1.5 mg/kg, read-out: [Brain]/[Plasma] Ratio ± SD): 0.37 ± 0.24
Kp at 240 min ([1]; female, NOD/SCID, mouse, brain, sc, 1.5 mg/kg, GS832-PDX, 240 min, single s.c. dose 1.5 mg/kg, read-out: [Brain]/[Plasma] Ratio ± SD): 0.5
Kp at 60 min ([1]; female, NOD/SCID, mouse, brain, sc, 1.5 mg/kg, naïve non-tumor-bearing mice, 60 min, single s.c. dose 1.5 mg/kg, read-out: [Brain]/[Plasma] Ratio ± SD): 0.05 ± 0.01
Kp at 60 min ([1]; female, NOD/SCID, mouse, brain, subcutaneous, 1.5 mg/kg, stated as at 60 min, range across PDX models, read-out: B/P ratio across the PDX models): 0.12 to 0.5
concentration at 60 min ([1]; female, NOD/SCID, mouse, liver, sc, 1.5 mg/kg, GBM8 PDX, 60 min, single s.c. dose 1.5 mg/kg, n = 6, read-out: [Liver] ± SD): 998 ± 254 ng/g
concentration at 60 min ([1]; female, NOD/SCID, mouse, liver, sc, 1.5 mg/kg, GS607-PDX, 60 min, single s.c. dose 1.5 mg/kg, n = 4, read-out: [Liver] ± SD): 1650 ± 163 ng/g
concentration at 60 min ([1]; female, NOD/SCID, mouse, liver, sc, 1.5 mg/kg, GS832-PDX, 60 min, single s.c. dose 1.5 mg/kg, n = 5, read-out: [Liver] ± SD): 680 ± 156 ng/g
concentration at 120 min ([1]; female, NOD/SCID, mouse, liver, sc, 1.5 mg/kg, GS832-PDX, 120 min, single s.c. dose 1.5 mg/kg, n = 5, read-out: [Liver] ± SD): 338 ± 94 ng/g
concentration at 240 min ([1]; female, NOD/SCID, mouse, liver, sc, 1.5 mg/kg, GS832-PDX, 240 min, single s.c. dose 1.5 mg/kg, n = 5, read-out: [Liver] ± SD): 190 ± 48 ng/g
concentration at 60 min ([1]; female, NOD/SCID, mouse, liver, sc, 1.5 mg/kg, naïve non-tumor-bearing mice, 60 min, single s.c. dose 1.5 mg/kg, n = 2, read-out: [Liver] ± SD): 715.9 ± 4.6 ng/g
concentration at 60 min ([1]; female, NOD/SCID, mouse, plasma, sc, 1.5 mg/kg, GBM8 PDX, 60 min, single s.c. dose 1.5 mg/kg, n = 6, read-out: [Plasma] ± SD): 391 ± 58 ng/mL
concentration at 60 min ([1]; female, NOD/SCID, mouse, plasma, sc, 1.5 mg/kg, GS607-PDX, 60 min, single s.c. dose 1.5 mg/kg, n = 2 blood samples, read-out: [Plasma] ± SD): 88 ± 9 ng/mL
concentration at 15 min ([1]; female, NOD/SCID, mouse, plasma, sc, 1.5 mg/kg, GS832-PDX NOD/SCID mice, single s.c. dose 1.5 mg/kg, 15 min (Table 1), read-out: [Plasma] ± SD): 396 ± 59 ng/mL
concentration at 30 min ([1]; female, NOD/SCID, mouse, plasma, sc, 1.5 mg/kg, GS832-PDX NOD/SCID mice, single s.c. dose 1.5 mg/kg, 30 min (Table 1), read-out: [Plasma] ± SD): 282 ± 65.4 ng/mL
concentration at 60 min ([1]; female, NOD/SCID, mouse, plasma, sc, 1.5 mg/kg, GS832-PDX NOD/SCID mice, single s.c. dose 1.5 mg/kg, 60 min (Table 1, n = 9), read-out: [Plasma] ± SD): 166 ± 29 ng/mL
concentration at 120 min ([1]; female, NOD/SCID, mouse, plasma, sc, 1.5 mg/kg, GS832-PDX NOD/SCID mice, single s.c. dose 1.5 mg/kg, 120 min (Table 1, n = 10), read-out: [Plasma] ± SD): 57.8 ± 10.8 ng/mL
concentration at 240 min ([1]; female, NOD/SCID, mouse, plasma, sc, 1.5 mg/kg, GS832-PDX NOD/SCID mice, single s.c. dose 1.5 mg/kg, 240 min (Table 1), read-out: [Plasma] ± SD): 24 ± 3 ng/mL
concentration at 60 min ([1]; female, NOD/SCID, mouse, plasma, sc, 1.5 mg/kg, GS832-PDX, 60 min, single s.c. dose 1.5 mg/kg, n = 5 (Table 2), read-out: [Plasma] ± SD): 186 ± 21.1 ng/mL
concentration at 120 min ([1]; female, NOD/SCID, mouse, plasma, sc, 1.5 mg/kg, GS832-PDX, 120 min, single s.c. dose 1.5 mg/kg, n = 5 (Table 2), read-out: [Plasma] ± SD): 55.6 ± 10.7 ng/mL
concentration at 240 min ([1]; female, NOD/SCID, mouse, plasma, sc, 1.5 mg/kg, GS832-PDX, 240 min, single s.c. dose 1.5 mg/kg, n = 5 (Table 2), read-out: [Plasma] ± SD): 23.5 ± 0.7 ng/mL
concentration at 60 min ([1]; female, NOD/SCID, mouse, plasma, sc, 1.5 mg/kg, naïve non-tumor-bearing mice, 60 min, single s.c. dose 1.5 mg/kg, n = 2, read-out: [Plasma] ± SD): 224 ± 12 ng/mL
Tmax ([1]; female, NOD/SCID, mouse, plasma, sc, GS832 tumor-bearing mice, single s.c. dose 1.5 mg/kg, read-out: time of peak concentration in plasma (converted)): 15 min
half-life ([1]; female, NOD/SCID, mouse, sc, plasma, GS832 tumor-bearing mice, single s.c. dose 1.5 mg/kg): 50 min
[Brain] ± SD, right hemisphere (non-tumor-bearing) ([1]; naïve non-tumor-bearing mice, 60 min, single s.c. dose 1.5 mg/kg, n = 2, 1.5 mg/kg): 16.4 ± 2.9 ng/g
substrate of P-gp (translocation basolateral to apical) (human P-gp (ABCB1)): weak substrate
SMILES: COC(=O)C[C@](O)(CCCC(C)(C)O)C(=O)O[C@@H]1C(OC)=C[C@]23CCCN2CCc2cc4c(cc2[C@H]13)OCO4 [OMA, Omacetaxine mepesuccinate]

From PMC11678797, “A Repurposed Drug Selection Pipeline to Identify CNS-Penetrant Drug Candidates for Glioblastoma” (Pharmaceuticals, 2024)
